Consider 33 compounds from patent US20110039847A1, “AMIDE DERIVATIVES AS SIRTUIN MODULATORS” (Sirtris Pharmaceuticals, Inc, priority 2007, published 2011).

The experiment has as its target T1, SIRT1 (Homo sapiens, UniProt Q96EB6).
T1 sequence (Q96EB6 1-747): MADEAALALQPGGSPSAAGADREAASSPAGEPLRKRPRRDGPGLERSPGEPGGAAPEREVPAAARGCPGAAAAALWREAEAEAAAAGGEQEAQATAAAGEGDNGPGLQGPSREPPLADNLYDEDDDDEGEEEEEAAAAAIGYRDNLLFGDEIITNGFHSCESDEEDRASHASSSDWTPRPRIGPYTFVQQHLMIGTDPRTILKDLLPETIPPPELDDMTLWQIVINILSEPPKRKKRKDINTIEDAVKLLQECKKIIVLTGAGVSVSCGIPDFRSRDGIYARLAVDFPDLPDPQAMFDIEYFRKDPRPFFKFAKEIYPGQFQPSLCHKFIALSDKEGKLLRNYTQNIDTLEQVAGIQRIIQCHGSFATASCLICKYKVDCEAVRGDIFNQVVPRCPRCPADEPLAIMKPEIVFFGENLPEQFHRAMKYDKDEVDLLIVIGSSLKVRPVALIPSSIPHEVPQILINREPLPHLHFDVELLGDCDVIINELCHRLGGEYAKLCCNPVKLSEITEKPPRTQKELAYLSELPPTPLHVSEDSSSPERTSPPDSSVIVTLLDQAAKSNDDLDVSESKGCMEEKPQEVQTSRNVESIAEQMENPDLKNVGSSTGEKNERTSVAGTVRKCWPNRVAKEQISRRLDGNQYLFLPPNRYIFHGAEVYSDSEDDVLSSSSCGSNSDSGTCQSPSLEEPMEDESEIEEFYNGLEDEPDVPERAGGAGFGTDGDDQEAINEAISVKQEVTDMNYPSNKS
The experiment can be described thus: Mass spectrometry based SIRT1 deacetylation (activation) assay. Type of experiment: biochemical. The note with it: 0.5 μM peptide substrate, 120 μM βNAD+, 10 nM SIRT1, 25 min at 25° C.; for Emax: 25 min, read-out: % Fold Act. (percent maximum fold activation).

On to `CCN(CCN(C)C)c1cc(C(=O)Nc2ccccc2C(=O)NC2CCNCC2)nc(-c2ccccc2)n1` [Compound 167, 6-((2-(dimethylamino)ethyl)(ethyl)amino)-2-phenyl-N-(2-(piperidin-4-ylcarbamoyl)phenyl)pyrimidine-4-carboxamide], for which the EC1.5 result was “A (EC1.5≦1 uM)” and the Emax is not below 300%.
Consider `Cc1csc(-c2ccccc2NC(=O)c2cc(NCCN(C)C)nc(-c3ccccc3)n2)n1` [Compound 7], for which the EC1.5 entry is “B (EC1.5>1 and ≦10 uM)”; the Emax is not below 300%.
Take `CC(C)C(=O)c1ccccc1NC(=O)c1cc(NCCN(C)C)nc(-c2ccccc2)n1` [Compound 142]: the EC1.5 entry was “B (EC1.5>1 and ≦10 uM)”; the Emax lay within 150 to 300%.
With `CCN(CCN(C)C)c1cc(C(=O)Nc2ccccc2-c2ncc(-c3ccccc3)o2)nc(-c2ccccc2)n1` [Compound 64], the EC1.5 result is “A (EC1.5≦1 uM)” and the Emax was in the range of 150 to 300%.
On the same counts, the results for `CN(C)CCNc1cc(C(=O)Nc2ccccc2C(=O)N(C)c2ccccc2)nc(-c2ccccc2)n1` [Compound 151, 6-(2-(dimethylamino)ethylamino)-N-(2-(methyl(phenyl)carbamoyl)phenyl)-2-phenylpyrimidine-4-carboxamide] are “C (EC1.5>10 uM)” and 150 to 300%.
As for `CCN(CCOC)c1cc(C(=O)Nc2ccccc2-c2nnc(N3CCOCC3)s2)nc(-c2ccccc2)n1` [Compound 107], the EC1.5 entry is on record as “A (EC1.5≦1 uM)” and the Emax was in the range of 150 to 300%.
For the compound `CCN(CCN(C)C)c1cc(C(=O)Nc2ccccc2C(=O)NC2CCCCC2)nc(-c2ccccc2)n1` [Compound 165, N-(2-(cyclohexylcarbamoyl)phenyl)-6-((2-(dimethylamino)ethyl)(ethyl)amino)-2-phenylpyrimidine-4-carboxamide], the EC1.5 result was “A (EC1.5≦1 uM)” and the Emax is 150 to 300%.
In the same order, the values of `Cc1ccc(NC(=O)c2ccccc2NC(=O)c2cc(NCCN(C)C)nc(-c3ccccc3)n2)cc1` [Compound 144, 6-(2-(dimethylamino)ethylamino)-2-phenyl-N-(2-(p-tolylcarbamoyl)phenyl)pyrimidine-4-carboxamide] are “A (EC1.5≦1 uM)” and 150 to 300%.
Regarding `CCc1nnc(-c2ccccc2NC(=O)c2cc(N(C)CCN(C)C)nc(-c3ccccc3)n2)s1` [Compound 56], the EC1.5 entry is “B (EC1.5>1 and ≦10 uM)”; the Emax was in the range of 150 to 300%.
On to `CCN(CCN(C)C)c1cc(C(=O)Nc2ccccc2-c2nnc(NS(C)(=O)=O)s2)nc(-c2ccccc2)n1` [Compound 98], for which the EC1.5 result was “A (EC1.5≦1 uM)” and the Emax was not below 300%.
In the same order, the values of `CCN(CCN(C)C)c1cc(C(=O)Nc2ccccc2-c2nnc(-c3ccncc3)s2)nc(-c2ccccc2)n1` [Compound 82] are “A (EC1.5≦1 uM)” and not below 300%.
With `CCCCC(=O)c1ccccc1NC(=O)c1cc(NCCN(C)C)nc(-c2ccccc2)n1` [Compound 127], the EC1.5 result was “B (EC1.5>1 and ≦10 uM)”; the Emax was in the range of 150 to 300%.
Consider `CC(=O)c1ccccc1NC(=O)c1cc(NC2CCN(C(C)C)CC2)nc(-c2ccccc2)n1` [Compound 137], for which the EC1.5 entry is listed as “A (EC1.5≦1 uM)” and the Emax is not below 300%.
For `CCCCc1nnc(-c2ccccc2NC(=O)c2cc(NCCN(C)C)nc(-c3ccccc3)n2)s1` [Compound 61], the EC1.5 result is “B (EC1.5>1 and ≦10 uM)”; the Emax was less than 150%.
For `CN(C)CCNc1cc(C(=O)Nc2ccccc2C(=O)Nc2ccccc2S(C)(=O)=O)nc(-c2ccccc2)n1` [Compound 163, 6-(2-(dimethylamino)ethylamino)-N-(2-(2-(methylsulfonyl)phenylcarbamoyl)phenyl)-2-phenylpyrimidine-4-carboxamide], the EC1.5 entry was “B (EC1.5>1 and ≦10 uM)”; the Emax lay within 150 to 300%.
Turning to `CN(C)CCNc1cc(C(=O)Nc2ccccc2Br)nc(-c2ccccc2)n1` [Compound 136], the EC1.5 result is “B (EC1.5>1 and ≦10 uM)”; the Emax is 150 to 300%.
On to `CCN(CCN(C)C)c1cc(C(=O)Nc2ccccc2-c2nnc(C(=O)N3CCOCC3)s2)nc(-c2ccccc2)n1` [Compound 87], for which the EC1.5 entry is given as “A (EC1.5≦1 uM)” and the Emax was not below 300%.
For the compound `COCCN(CCOC)c1cc(C(=O)Nc2ccccc2-c2nnc(N3CCOCC3)s2)nc(-c2ccccc2)n1` [Compound 106], the EC1.5 entry is listed as “A (EC1.5≦1 uM)” and the Emax was 150 to 300%.
For the compound `CN(C)CCNc1cc(C(=O)Nc2ccccc2C(=O)NCCS(C)(=O)=O)nc(-c2ccccc2)n1` [Compound 149, 6-(2-(dimethylamino)ethylamino)-N-(2-(2-(methylsulfonyl)ethylcarbamoyl)phenyl)-2-phenylpyrimidine-4-carboxamide], the EC1.5 result is “B (EC1.5>1 and ≦10 uM)”; the Emax lay in the range of 150 to 300%.
Consider `CCN1CCN(c2cc(C(=O)Nc3ccccc3-c3nncs3)nc(-c3ccccc3)n2)CC1=O` [Compound 96], for which the EC1.5 entry is listed as “A (EC1.5≦1 uM)” and the Emax was 150 to 300%.
For the compound `CC(=O)c1ccccc1NC(=O)c1cc(N2CCOCC2)nc(-c2ccccc2)n1` [Compound 134], the EC1.5 result is “A (EC1.5≦1 uM)” and the Emax lay within 150 to 300%.
In the same order, the values of `CN(C)CCNc1cc(C(=O)Nc2ccccc2-c2nnc(-c3ccccn3)s2)nc(-c2ccccc2)n1` [Compound 73] are “A (EC1.5≦1 uM)” and not below 300%.
As for `CNC(=O)c1ccccc1NC(=O)c1cc(NCCN(C)C)nc(-c2ccccc2)n1` [Compound 125, 6-(2-(dimethylamino)ethylamino)-N-(2-(methylcarbamoyl)phenyl)-2-phenylpyrimidine-4-carboxamide], the EC1.5 result was “B (EC1.5>1 and ≦10 uM)”; the Emax is not below 300%.
Regarding `CCN(CC)C(=O)c1ccccc1NC(=O)c1cc(NCCN(C)C)nc(-c2ccccc2)n1` [Compound 124, N-(2-(diethylcarbamoyl)phenyl)-6-(2-(dimethylamino)ethylamino)-2-phenylpyrimidine-4-carboxamide], the EC1.5 result was “B (EC1.5>1 and ≦10 uM)”; the Emax is 150 to 300%.
Take `CCN(CCN(C)C)c1cc(C(=O)Nc2ccccc2C(=O)N[C@@H]2CCCC[C@H]2O)nc(-c2ccccc2)n1` [Compound 171, 6-((2-(dimethylamino)ethyl)(ethyl)amino)-N-(2-((1R,2R)-2-hydroxycyclohexylcarbamoyl)phenyl)-2-phenylpyrimidine-4-carboxamide]: the EC1.5 result is listed as “A (EC1.5≦1 uM)” and the Emax is not below 300%.
Regarding `CCN(CCN(C)C)c1cc(C(=O)Nc2ccccc2-c2nnc(C(F)=C3CCOCC3)s2)nc(-c2ccccc2)n1` [Compound 114, 6-((2-(dimethylamino)ethyl)(ethyl)amino)-N-(2-(5-(fluoro(2H-pyran-4(3H,5H,6H)-ylidene)methyl)-1,3,4-thiadiazol-2-yl)phenyl)-2-phenylpyrimidine-4-carboxamide], the EC1.5 entry is on record as “A (EC1.5≦1 uM)” and the Emax was not below 300%.
As for `CN(C)CCNc1cc(C(=O)Nc2ccccc2-c2ccccn2)nc(-c2ccccc2)n1` [Compound 28], the EC1.5 entry was “B (EC1.5>1 and ≦10 uM)”; the Emax is not below 300%.
In the case of `CN(C)CCNc1cc(C(=O)Nc2ccccc2-c2csc(-c3ccccc3)n2)nc(-c2ccccc2)n1` [Compound 12], the EC1.5 entry is “B (EC1.5>1 and ≦10 uM)”; the Emax lay in the range of 150 to 300%.
Regarding `CN(C)CCNc1cc(C(=O)Nc2ccccc2C(=O)Nc2c(Cl)cccc2Cl)nc(-c2ccccc2)n1` [Compound 162, N-(2-(2,6-dichlorophenylcarbamoyl)phenyl)-6-(2-(dimethylamino)ethylamino)-2-phenylpyrimidine-4-carboxamide], the EC1.5 result is recorded as “A (EC1.5≦1 uM)” and the Emax was not below 300%.
In the case of `CN(C)CCNc1cc(C(=O)Nc2ccccc2C(=O)NCCC(=O)O)nc(-c2ccccc2)n1` [Compound 130, 3-(2-(6-(2-(dimethylamino)ethylamino)-2-phenylpyrimidine-4-carboxamido)benzamido)propanoic acid], the EC1.5 result was “B (EC1.5>1 and ≦10 uM)”; the Emax was in the range of 150 to 300%.
Regarding `CN(C)CCNc1cc(C(=O)Nc2ccccc2C(=O)Nc2ccncc2)nc(-c2ccccc2)n1` [Compound 156, 6-(2-(dimethylamino)ethylamino)-2-phenyl-N-(2-(pyridin-4-ylcarbamoyl)phenyl)pyrimidine-4-carboxamide], the EC1.5 result is “A (EC1.5≦1 uM)” and the Emax was not below 300%.
Take `CN(C)CCNc1cc(C(=O)Nc2ccccc2C#N)nc(-c2ccccc2)n1` [Compound 4]: the EC1.5 entry is “B (EC1.5>1 and ≦10 uM)”; the Emax is 150 to 300%.
For the compound `CCN(CCN(C)C)c1cc(C(=O)Nc2ccccc2-c2nnc(CC(C)C)s2)nc(-c2ccccc2)n1` [Compound 80], the EC1.5 result was “B (EC1.5>1 and ≦10 uM)”; the Emax fell in the range of 150 to 300%.
